Measured values from US6358885B1, “Substituted phenylheterocyclic herbicides” (Mississippi State University, priority 1992, dated 2002).

Experiments:
Assay in all cases: Test G preemergence/postemergence greenhouse plant response rating 0 to 100
alfalfa = type: in vivo, Medicago ativa; settings: 0 to 100 scale
Excerpt: (§1) Seeds, rhizomes, or plant parts of alfalfa (Medicago ativa), annual bluegrass (Poa annua), bermudagrass (Cynodon dactylon), broadleaf signalgrass (Brachiaria plantaginea), common purslane (Portulaca oleracea), common ragweed (Ambrosia elatior), […] (Paspalum dilatatum), goosegrass (Eleusine indica), guineagrass (Panicum maximum), […] exaltata), johnsongrass (Sorghum halepense), large crabgrass (Digitaria sanguinalis), peanut (Arachis hypoagaea), pitted morningglory (Ipomoea lacunosa), purple nutsedge (Cyperus rotundus), sandbur (Cenchrus echinatus), smooth crabgrass (Digitaria ischaemum) and yellow nutsedge (Cyperus esculentus) were planted into greenhouse pots containing greenhouse planting medium. Each pot contained only one plant species. The test compound was dissolved in a non-phytotoxic solvent and applied preemergence and/or postemergence to the plants. Preemergence applications were made within one day of planting the seeds or plant parts. Postemergence applications were applied when the plants were in the two to four leaf stage (three to twenty cm). Test chemicals were dissolved in a non-phytotoxic solvent and applied preemergence and postemergence to the plants. Untreated control plants and treated plants were placed in the greenhouse and visually evaluated for injury at 13 to 21 days after herbicide application. […] A dash (-) response indicates no test result.

annual bluegrass = type: in vivo, Poa annua; settings: 0 to 100 scale
Excerpt: as §1

bermudagrass = type: in vivo, Cynodon dactylon; settings: 0 to 100 scale
Excerpt: as §1

broadleaf signalgrass = type: in vivo, Brachiaria plantaginea; settings: 0 to 100 scale
Excerpt: as §1

common purslane = type: in vivo, Portulaca oleracea; settings: 0 to 100 scale
Excerpt: as §1

common ragweed = type: in vivo, Ambrosia elatior; settings: 0 to 100 scale
Excerpt: as §1

goosegrass = type: in vivo, Eleusine indica; settings: 0 to 100 scale
Excerpt: as §1

guineagrass = type: in vivo, Panicum maximum; settings: 0 to 100 scale
Excerpt: as §1

itchgrass = type: in vivo, Rottboellia exaltata; settings: 0 to 100 scale
Excerpt: as §1

johnsongrass = type: in vivo, Sorghum halepense; settings: 0 to 100 scale
Excerpt: as §1

large crabgrass = type: in vivo, Digitaria sanguinalis; settings: 0 to 100 scale
Excerpt: as §1

peanut = type: in vivo, Arachis hypoagaea; settings: 0 to 100 scale
Excerpt: as §1

pitted morningglory = type: in vivo, Ipomoea lacunosa; settings: 0 to 100 scale
Excerpt: as §1

sandbur = type: in vivo, Cenchrus echinatus; settings: 0 to 100 scale
Excerpt: as §1

smooth crabgrass = type: in vivo, Digitaria ischaemum; settings: 0 to 100 scale
Excerpt: as §1

yellow nutsedge = type: in vivo, Cyperus esculentus; settings: Rate 125 g/ha, 0 to 100 scale
Excerpt: as §1

Structure (SMILES): CC(C)COc1cc(-c2nn3c(c2Cl)CCCC3)c(F)cc1Cl [Compound 30]
- Plant response rating, Alfalfa Var. (alfalfa; POSTEMERGENCE, Rate 125 g/ha): 0
- Plant response rating, Alfalfa Var. (alfalfa; POSTEMERGENCE, Rate 250 g/ha): 0
- Plant response rating, Alfalfa Var. (alfalfa; PREEMERGENCE, Rate 125 g/ha): 0
- Plant response rating, Alfalfa Var. (alfalfa; PREEMERGENCE, Rate 250 g/ha): 0
- Plant response rating, Ann Bluegrass (annual bluegrass; POSTEMERGENCE, Rate 125 g/ha): 0
- Plant response rating, Ann Bluegrass (annual bluegrass; POSTEMERGENCE, Rate 250 g/ha): 0
- Plant response rating, Ann Bluegrass (annual bluegrass; PREEMERGENCE, Rate 125 g/ha): 0
- Plant response rating, Ann Bluegrass (annual bluegrass; PREEMERGENCE, Rate 250 g/ha): 0
- Plant response rating, Bermudagrass (bermudagrass; POSTEMERGENCE, Rate 125 g/ha): 0
- Plant response rating, Bermudagrass (bermudagrass; POSTEMERGENCE, Rate 250 g/ha): 0
- Plant response rating, Bermudagrass (bermudagrass; PREEMERGENCE, Rate 125 g/ha): 0
- Plant response rating, Bermudagrass (bermudagrass; PREEMERGENCE, Rate 250 g/ha): 0
- Plant response rating, Brdlf Sgnlgrass (broadleaf signalgrass; POSTEMERGENCE, Rate 125 g/ha): 0
- Plant response rating, Brdlf Sgnlgrass (broadleaf signalgrass; POSTEMERGENCE, Rate 250 g/ha): 0
- Plant response rating, Brdlf Sgnlgrass (broadleaf signalgrass; PREEMERGENCE, Rate 125 g/ha): 0
- Plant response rating, Brdlf Sgnlgrass (broadleaf signalgrass; PREEMERGENCE, Rate 250 g/ha): 0
- Plant response rating, Cmn Purslane (common purslane; POSTEMERGENCE, Rate 125 g/ha): 70
- Plant response rating, Cmn Purslane (common purslane; POSTEMERGENCE, Rate 250 g/ha): 60
- Plant response rating, Cmn Purslane (common purslane; PREEMERGENCE, Rate 125 g/ha): 0
- Plant response rating, Cmn Purslane (common purslane; PREEMERGENCE, Rate 250 g/ha): 0
- Plant response rating, Cmn Ragweed (common ragweed; POSTEMERGENCE, Rate 125 g/ha): 40
- Plant response rating, Cmn Ragweed (common ragweed; POSTEMERGENCE, Rate 250 g/ha): 0
- Plant response rating, Cmn Ragweed (common ragweed; PREEMERGENCE, Rate 125 g/ha): 0
- Plant response rating, Cmn Ragweed (common ragweed; PREEMERGENCE, Rate 250 g/ha): 0
- Plant response rating, Goosegrass (goosegrass; POSTEMERGENCE, Rate 125 g/ha): 0
- Plant response rating, Goosegrass (goosegrass; POSTEMERGENCE, Rate 250 g/ha): 0
- Plant response rating, Goosegrass (goosegrass; PREEMERGENCE, Rate 125 g/ha): 0
- Plant response rating, Goosegrass (goosegrass; PREEMERGENCE, Rate 250 g/ha): 30
- Plant response rating, Guineagrass (guineagrass; POSTEMERGENCE, Rate 125 g/ha): 0
- Plant response rating, Guineagrass (guineagrass; POSTEMERGENCE, Rate 250 g/ha): 0
- Plant response rating, Guineagrass (guineagrass; PREEMERGENCE, Rate 125 g/ha): 0
- Plant response rating, Guineagrass (guineagrass; PREEMERGENCE, Rate 250 g/ha): 0
- Plant response rating, Itchgrass (itchgrass; POSTEMERGENCE, Rate 125 g/ha): 0
- Plant response rating, Itchgrass (itchgrass; POSTEMERGENCE, Rate 250 g/ha): 0
- Plant response rating, Itchgrass (itchgrass; PREEMERGENCE, Rate 125 g/ha): 0
- Plant response rating, Itchgrass (itchgrass; PREEMERGENCE, Rate 250 g/ha): 0
- Plant response rating, Johnsongrass (johnsongrass; POSTEMERGENCE, Rate 125 g/ha): 0
- Plant response rating, Johnsongrass (johnsongrass; POSTEMERGENCE, Rate 250 g/ha): 0
- Plant response rating, Johnsongrass (johnsongrass; PREEMERGENCE, Rate 125 g/ha): 0
- Plant response rating, Johnsongrass (johnsongrass; PREEMERGENCE, Rate 250 g/ha): 0
- Plant response rating, Large Crabgrass (large crabgrass; POSTEMERGENCE, Rate 125 g/ha): 0
- Plant response rating, Large Crabgrass (large crabgrass; POSTEMERGENCE, Rate 250 g/ha): 0
- Plant response rating, Large Crabgrass (large crabgrass; PREEMERGENCE, Rate 125 g/ha): 0
- Plant response rating, Large Crabgrass (large crabgrass; PREEMERGENCE, Rate 250 g/ha): 70
- Plant response rating, Peanuts (peanut; POSTEMERGENCE, Rate 125 g/ha): 0
- Plant response rating, Peanuts (peanut; POSTEMERGENCE, Rate 250 g/ha): 0
- Plant response rating, Peanuts (peanut; PREEMERGENCE, Rate 125 g/ha): 0
- Plant response rating, Peanuts (peanut; PREEMERGENCE, Rate 250 g/ha): 0
- Plant response rating, Pit Morninglory (pitted morningglory; POSTEMERGENCE, Rate 125 g/ha): 0
- Plant response rating, Pit Morninglory (pitted morningglory; POSTEMERGENCE, Rate 250 g/ha): 20
- Plant response rating, Pit Morninglory (pitted morningglory; PREEMERGENCE, Rate 125 g/ha): 0
- Plant response rating, Pit Morninglory (pitted morningglory; PREEMERGENCE, Rate 250 g/ha): 0
- Plant response rating, S. Sandbur (sandbur; POSTEMERGENCE, Rate 125 g/ha): 0
- Plant response rating, S. Sandbur (sandbur; POSTEMERGENCE, Rate 250 g/ha): 0
- Plant response rating, S. Sandbur (sandbur; PREEMERGENCE, Rate 125 g/ha): 0
- Plant response rating, S. Sandbur (sandbur; PREEMERGENCE, Rate 250 g/ha): 0
- Plant response rating, Smooth Crabgras (smooth crabgrass; POSTEMERGENCE, Rate 125 g/ha): 0
- Plant response rating, Smooth Crabgras (smooth crabgrass; POSTEMERGENCE, Rate 250 g/ha): 0
- Plant response rating, Smooth Crabgras (smooth crabgrass; PREEMERGENCE, Rate 125 g/ha): 0
- Plant response rating, Smooth Crabgras (smooth crabgrass; PREEMERGENCE, Rate 250 g/ha): 0
- Plant response rating, Yellow Nutsedge (yellow nutsedge; POSTEMERGENCE): 0
- Plant response rating, Yellow Nutsedge (yellow nutsedge; PREEMERGENCE): 0
